US20260248815A1, “NEUROACTIVE STEROID FORMULATIONS AND METHODS OF USE THEREOF” (Sage Therapeutics, LLC, priority 2023, published 2026)
Read-outs that look alike come from different tables or passages of the source.

Assay: Open-label single-dose PK study in participants with hepatic impairment and normal hepatic function
Type: in vivo, human
Conditions: GeoMean, single 1.2 mg oral dose softgel capsules; for Cmax / AUC(0-inf) / AUC(0-t) / Tmax / Vd/F: human, in vivo, po, 1.2 mg; for Vd/F: read-out: Vz/F
Method: In an open-label, parallel group study to evaluate the PK, safety, and tolerability of Compound I, a single 1.2 mg oral dose of softgel capsules was administered to participants with hepatic impairment and in participants with normal hepatic function. Part 1 of the study comprised participants with moderate hepatic impairment (as determined by the Child-Pugh classifications; Class B (7 to 9 points)) and participants with normal hepatic function assigned to Cohorts 1 and 2, respectively. After Cohort 1 had been completely enrolled, participants with normal hepatic function (Cohort 2) were matched to Cohort 1 participants with respect to sex, mean age (10 years) and mean body mass index (BMI; 20%).
On Day 1, participants in Cohorts 1 and 2 received a single oral dose of 1.2 mg Compound I softgel capsules in the morning. Serial blood samples for PK analysis were collected through 168 hours post dose.

[1] = Cohort 1: moderate hepatic impairment, N 8
[2] = Cohort 2: normal hepatic function, N 7
[3] = Cohort 2: normal hepatic function, N 8

C[C@H](CC[C@](C)(O)C(F)(F)F)[C@H]1CC[C@H]2[C@@H]3CC=C4C[C@@](C)(O)CC[C@]4(C)[C@H]3CC[C@]12C [Compound I]
CLz/F [1]: 5.5 L/h | tlast [1]: 53.9 h | CLz/F [2]: 4.71 L/h | tlast [3]: 64.3 h | Cmax (Cohort 1: moderate hepatic impairment (Child-Pugh Class B), N 8): 12.2 ng/mL | AUC(0-inf) [1]: 218 ng·h/mL | AUC(0-t) [1]: 188 ng·h/mL | Tmax [1]: 3.69 h | Vd/F [1]: 153 L | AUC(0-inf) [2]: 255 ng·h/mL | AUC(0-t) [2]: 238 ng·h/mL | Vd/F [2]: 151 L | Cmax [3]: 15.7 ng/mL | Tmax [3]: 3.99 h
